Results taken from paper PMC12363342, “Investigating the N-terminal linker histone H1 subtypes as substrates for JmjC lysine demethylases” (RSC Chemical Biology, 2025).
Square brackets hold non-standard residues; d marks the D form. Ends that are not written are not given here. Lys(Me3) = C[N+](C)(C)CCCC[C@H](N)C(=O)O

Tests used:
KDM4E = molecular target: T1, KDM4E (Homo sapiens, UniProt B2RXH2); experiment: LC-MS demethylation activity assay, KDM4E; assay type: biochemical; conditions: 10 μM FAS, 100 μM LAA, 20 μM 2OG, room temperature
T1 construct: KDM4DM1-L359,[39]; KDM4EM1-R336,[30]; His6 (N); made in house; host or cells: Escherichia coli
T1 sequence (B2RXH2 1-336): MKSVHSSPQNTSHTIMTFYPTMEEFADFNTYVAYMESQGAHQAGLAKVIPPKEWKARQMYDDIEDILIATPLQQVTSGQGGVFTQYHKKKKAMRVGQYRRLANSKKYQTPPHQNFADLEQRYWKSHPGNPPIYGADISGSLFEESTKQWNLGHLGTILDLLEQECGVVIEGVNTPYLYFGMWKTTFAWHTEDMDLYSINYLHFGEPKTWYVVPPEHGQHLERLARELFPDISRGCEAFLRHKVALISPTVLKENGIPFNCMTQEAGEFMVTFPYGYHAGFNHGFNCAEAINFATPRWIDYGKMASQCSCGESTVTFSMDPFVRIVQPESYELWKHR
Method: (§1) The substrate specificity of JmjC KDMs for H1 was examined using liquid chromatography coupled to mass spectrometry (LC-MS) assays. The H1 peptides (10 μM) were incubated with the recombinant KDM (2 μM) in HEPES buffer at pH 7.5 at room temperature for 2 h, in the presence of ferrous(II) ammonium sulfate (FAS, 10 μM), sodium ascorbate (LAA, 100 μM) and 2OG (20 μM), and then quenched with formic acid. N^ε-Methylated H3K9 and H3K36 peptides were used as positive controls (Fig. 3–5 and Fig. S2–S6).[26]
(§2) The catalytic domains of the JmjC KDMs used were recombinantly produced as reported in either Escherichia coli (KDM4AM1-L359,[38] KDM4DM1-L359,[39] KDM4EM1-R336,[30] KDM6BD1141–E1590[40] and KDM3CL2157-L2500) or Sf9 cells (KDM3AT515–S1317, KDM3B882–1761, and KDM5DM1-D775) as N-terminally His6-tagged proteins. […] To produce proteins, DNA sequences encoding for KDM3A, KDM3B and KDM5D were inserted into the pFB-LIC vector, containing a TEV-protease cleavable N-terminal 6x-histidine tag via ligation independent cloning (LIC). The resultant plasmids were transformed into baculovirus and Sf9 cells ([…]) which were infected with the virus stock. The cells were grown at 27 °C and 90 rpm for 70 h. Cells were then harvested and suspended in 100 mL of lysis buffer (50 mM HEPES-NaOH, pH 7.4, 500 mM NaCl, 20 mM imidazole, 0.5 mM Tris (2-carboxyethyl)phosphine (TCEP), 5% (v/v) glycerol). […] The supernatant was loaded onto a Ni-NTA gravity column, washed with 10 column volume of lysis buffer and eluted using the elution buffer (50 mM HEPES-NaOH, pH 7.4, 500 mM NaCl, 300 mM imidazole, 0.5 mM TCEP, 5% (v/v) glycerol). The eluted protein was further purified using S200 gel filtration column chromatography (50 mM HEPES-NaOH, pH 7.4, 150 mM NaCl, 0.5 mM TCEP and 5% glycerol). Protein purity was analysed by SDS-PAGE and further confirmed by mass spectrometry. Selected fractions were pooled, concentrated and stored at −80 °C.
(§3) All reagents were purchased from Sigma Aldrich and were of the highest grade available. Ferrous(II) ammonium sulfate (FAS) solutions were prepared freshly by dissolving FAS to 400 mM in 20 mM HCl with subsequent dilution to 1 mM using deionized water. Fresh 2OG (10 mM) and LAA (50 mM) solutions were prepared by dissolving the solids in deionised water. All enzyme reactions were performed in 384-well plates (Greiner Bio-One) with a final reaction volume of 50 μL. Substrate mixtures contained 50 mM HEPES pH 7.5, LAA (100 μM), FAS (10 μM), 2OG (20 μM) and an H1 isoform peptide (10 μM). Reactions were initiated by the addition of enzyme to a final concentration of 2.0 μM. After 2 h, the reactions were stopped by the addition of 5 μL of 10% (v/v) LC-MS grade formic acid (Fisher Scientific) to a final concentration of 1% (v/v). Product analyses were performed by liquid chromatography-mass spectrometry (LC-MS) using an Agilent 1290 infinity II LC system equipped with an Agilent 1290 multisampler and an Agilent 1290 high speed pump and connected to an Agilent 6550 accurate mass iFunnel quadrupole time of flight (Q-TOF) mass spectrometer. 1 μL of the reaction mixture was injected onto a 1.8 μm × 2.1 × 50 mm ZORBAX RRHD Eclipse Plus C18 column (Agilent). Solvent A consisted of HPLC grade water containing 0.1% (v/v) formic acid and solvent B consisted of MeCN containing 0.1% (v/v) formic acid. Peptides were separated using a stepwise gradient (0 min – 95% solvent A, 1.0 min – 80% solvent A, 3.0 min – 45% solvent A, 4.0 min – 45% solvent A, 5.0 min – 0% solvent A, 6.0 min – 0% solvent A, 7.0 min – 95% solvent A). This was followed by a 3 min post-run with 95% solvent A to re-equilibrate the column. All flow rates were 0.2 mL min^−1. A blank injection of HPLC grade water was carried out between each sample injection.

KDM4A = experiment: LC-MS demethylation activity assay, KDM4A; assay type: biochemical, human; conditions: 10 μM FAS, 100 μM LAA, 20 μM 2OG, room temperature; for KDM4A demethylation activity, M: M (mono-) initial methylation state
Method: as §1, §2, §3

KDM3A = experiment: LC-MS demethylation activity assay, KDM3A; assay type: biochemical, human; conditions: 2 μM KDM, 10 μM H1/H3 peptide, 10 μM FAS, 100 μM LAA, 20 μM 2OG, 50 mM HEPES pH 7.5, 2 h, room temperature; for KDM3A demethylation activity, M: M (mono-) initial methylation state
Method: as §1, §2, §3

KDM5D = experiment: LC-MS demethylation activity assay, KDM5D; assay type: biochemical, human; conditions: 2 μM KDM, 10 μM H1/H3 peptide, 10 μM FAS, 100 μM LAA, 20 μM 2OG, 50 mM HEPES pH 7.5, 2 h, room temperature; for KDM5D demethylation activity, M: M (mono-) initial methylation state
Method: as §1, §2, §3

KDM4D = molecular target: T2, KDM4D (Homo sapiens, UniProt Q6B0I6); experiment: LC-MS demethylation activity assay, KDM4D; assay type: biochemical; conditions: room temperature; for KDM4D demethylation activity, M: M (mono-) initial methylation state
T2 construct: KDM4AM1-L359,[38]; KDM4DM1-L359,[39]; KDM4EM1-R336,[30]; His6 (N); made in house; host or cells: Escherichia coli
T2 sequence (Q6B0I6 1-359): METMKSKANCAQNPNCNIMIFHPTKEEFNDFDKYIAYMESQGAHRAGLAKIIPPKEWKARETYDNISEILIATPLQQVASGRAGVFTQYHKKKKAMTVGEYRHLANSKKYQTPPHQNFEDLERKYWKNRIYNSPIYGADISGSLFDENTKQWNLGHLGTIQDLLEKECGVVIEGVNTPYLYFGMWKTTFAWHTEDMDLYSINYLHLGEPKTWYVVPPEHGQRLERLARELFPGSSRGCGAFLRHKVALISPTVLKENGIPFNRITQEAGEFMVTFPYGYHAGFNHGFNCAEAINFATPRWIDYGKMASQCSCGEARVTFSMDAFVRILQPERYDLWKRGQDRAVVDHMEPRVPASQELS
Method: as §1, §2, §3

KDM3B = experiment: LC-MS demethylation activity assay, KDM3B; assay type: biochemical, human; conditions: 2 μM KDM, 10 μM H1/H3 peptide, 10 μM FAS, 100 μM LAA, 20 μM 2OG, 50 mM HEPES pH 7.5, 2 h, room temperature; for KDM3B demethylation activity, M: M (mono-) initial methylation state
Method: as §1, §2, §3

KDM3C = experiment: LC-MS demethylation activity assay, KDM3C; assay type: biochemical, human; conditions: 2 μM KDM, 10 μM H1/H3 peptide, 10 μM FAS, 100 μM LAA, 20 μM 2OG, 50 mM HEPES pH 7.5, 2 h, room temperature; for KDM3C demethylation activity, M: M (mono-) initial methylation state
Method: as §1, §2, §3

KDM6B = experiment: LC-MS demethylation activity assay, KDM6B; assay type: biochemical, human; conditions: 2 μM KDM, 10 μM H1/H3 peptide, 10 μM FAS, 100 μM LAA, 20 μM 2OG, 50 mM HEPES pH 7.5, 2 h, room temperature; for KDM6B demethylation activity, M: M (mono-) initial methylation state
Method: as §1, §2, §3

[1] = 2 μM KDM, 10 μM H1/H3 peptide, 50 mM HEPES pH 7.5, 2 h, T (tri-) initial methylation state
[2] = T (tri-) initial methylation state
[3] = 2 μM KDM4D, 10 μM peptide, standard conditions, 2 h
[4] = 2 μM KDM, 10 μM H1/H3 peptide, 50 mM HEPES pH 7.5, 2 h
[5] = 2 μM KDM, 10 μM H1/H3 peptide, 10 μM FAS, 100 μM LAA, 20 μM 2OG, 50 mM HEPES pH 7.5, 2 h

Row | substrate conversion (demethylation) by KDM4E (KDM4E; 2 μM KDM4E, 10 μM peptide, HEPES pH 7.5, 2 h) | KDM4D demethylation activity, in words (KDM4D; [3]) | di-methylated product formed by KDM4D (KDM4D; [3]) | KDM4D demethylation activity, T (KDM4D; 2 μM KDM, 10 μM H1/H3 peptide, 10 μM FAS, 100 μM LAA, 20 μM 2OG, 50 mM HEPES pH 7.5, 2 h, T (tri-) initial methylation state) | KDM4D demethylation activity, M (KDM4D; [5]) | Substance | KDM4E demethylation activity, T (KDM4E; [1]) | substrate conversion (demethylation) by KDM4A (KDM4A; 2 μM KDM4A, 10 μM peptide, HEPES pH 7.5, 2 h) | KDM4A demethylation activity, T (KDM4A; [1]) | KDM3A demethylation activity, T (KDM3A; [2]) | KDM5D demethylation activity, T (KDM5D; [2]) | KDM3B demethylation activity, T (KDM3B; [2]) | KDM3C demethylation activity, T (KDM3C; [2]) | KDM6B demethylation activity, T (KDM6B; [2]) | KDM4A demethylation activity, M (KDM4A; [4]) | KDM3A demethylation activity, M (KDM3A) | KDM5D demethylation activity, M (KDM5D) | KDM3B demethylation activity, M (KDM3B) | KDM3C demethylation activity, M (KDM3C) | KDM6B demethylation activity, M (KDM6B)
1 | < 10% | No activity was observed | < 5% | ● [red] |  | KKKAK[Lys(Me3)]AGATAGKRK [Peptide H1.3K25me3, 15-mer linker histone H1.3 residues 20-34 peptide, tri-methylated K25] | ● [black] (black dots indicate low-level demethylation (<10% conversion)) | < 10% | ● [black] (black dots indicate low-level demethylation (<10% conversion)) | ● [red] | ● [red] | ● [red] | ● [red] | ● [red] |  |  |  |  |  | 
2 |  |  |  |  | ● [red] | KKKAAKKmeAGGTPRKA [Peptide H1.2K26me, 15-mer linker histone H1.2 residues 20-34 peptide, mono-methylated K26] |  |  |  |  |  |  |  |  | ● [red] | ● [red] | ● [red] | ● [red] | ● [red] | ● [red]
3 |  |  |  |  | ● [red] | KKKAKmeKAGATAGKRK [Peptide H1.3K24me, 15-mer linker histone H1.3 residues 20-34 peptide, mono-methylated K24] |  |  |  |  |  |  |  |  | ● [red] | ● [red] | ● [red] | ● [red] | ● [red] | ● [red]

Row | Substance | substrate conversion (demethylation) by KDM4E (KDM4E; 2 μM KDM4E, 10 μM peptide, HEPES pH 7.5, 2 h) | KDM4D demethylation activity, in words (KDM4D; [3]) | di-methylated product formed by KDM4D (KDM4D; [3]) | KDM4D demethylation activity, T (KDM4D; 2 μM KDM, 10 μM H1/H3 peptide, 10 μM FAS, 100 μM LAA, 20 μM 2OG, 50 mM HEPES pH 7.5, 2 h, T (tri-) initial methylation state) | KDM4D demethylation activity, M (KDM4D; [5]) | KDM4E demethylation activity, T (KDM4E; [1]) | substrate conversion (demethylation) by KDM4A (KDM4A; 2 μM KDM4A, 10 μM peptide, HEPES pH 7.5, 2 h) | KDM4A demethylation activity, T (KDM4A; [1]) | KDM3A demethylation activity, T (KDM3A; [2]) | KDM5D demethylation activity, T (KDM5D; [2]) | KDM3B demethylation activity, T (KDM3B; [2]) | KDM3C demethylation activity, T (KDM3C; [2]) | KDM6B demethylation activity, T (KDM6B; [2]) | KDM4A demethylation activity, M (KDM4A; [4]) | KDM3A demethylation activity, M (KDM3A) | KDM5D demethylation activity, M (KDM5D) | KDM3B demethylation activity, M (KDM3B) | KDM3C demethylation activity, M (KDM3C) | KDM6B demethylation activity, M (KDM6B)
4 | KKKARKmeSAGAAKRKA [Peptide H1.4K25me, 15-mer linker histone H1.4 residues 20-34 peptide, mono-methylated K25] |  |  |  |  | ● [black] (black dots indicate low-level demethylation (<10% conversion)) |  |  |  |  |  |  |  |  | ● [red] | ● [red] | ● [red] | ● [red] | ● [red] | ● [red]
